Patent publication US20190307728A1, “METHODS OF TREATMENT WITH A 2,4,5-TRISUBSTITUTED 1,2,4-TRIAZOLONE” (Bayer Pharma Aktiengesellschaft, priority 2018, published 2019)
pEC50, pIC50: −log10 of the molar value.

How the values were obtained:
Experiment in all cases: Cell proliferation panel assay
Assay type in all cases: cell-based
MHH-PREB-1 = details: Homo sapiens, 72 h; MHH-PREB-1, Lymphoma, 3-day incubation; read-out: Cell Count IC50
Mia PaCa-2 = details: Homo sapiens, 72 h; Mia PaCa-2, Pancreatic cancer, 3-day incubation; read-out: Cell Count IC50
A498 = details: Homo sapiens, 72 h, A498, Renal cell carcinoma, 3-day incubation
Experimental: (§1) Cells were grown in RPMI 1640, 10% FBS, 2 mM L-alanyl-L-glutamine, 1 mM Na pyruvate or a special medium. Cells were seeded into 384-well plates and incubated in a humidified atmosphere of 5% CO2 at 37° C. Compounds were added the day following cell seeding. At the same time, a time zero untreated cell plate was generated. After a 3-day incubation period, cells were fixed and stained to allow fluorescence imaging of nuclei.
(§2) Compounds were serially diluted in half-log steps from the highest test concentration 10 μM, and assayed over 10 concentrations with a maximum assay concentration of 0.1% DMSO. Automated fluorescence microscopy was carried out using a Molecular Devices ImageXpress Micro XL high-content imager, and images were collected with a 4× objective. 16-bit TIFF images were acquired and analyzed with MetaXpress 5.1.0.41 software.
(§3) Cell proliferation was measured by the fluorescence intensity of an incorporated nuclear dye. The output is referred to as the relative cell count, where the measured nuclear intensity is transformed to percent of control (POC) using the following formula: […]
(§4) Cellular response parameters were calculated using nonlinear regression to a sigmoidal single-site dose response model:
(§5) Where y is a response measured at concentration x, A and B are the lower and upper limits of the response, C is the concentration at the response midpoint (EC50), and D is the Hill Slope (Fallahi-Sichani, M., S. Honardejad, L. M. Heiser, J. W. Gray, and P. K. Sorger (2013). Metrics other than potency reveal systematic variation in responses to cancer drugs. Nat. Chem. Biol. 9: 708-714.).
(§6) Cell count IC50 is the test compound concentration at 50% of maximal possible response. EC50 is the test compound concentration at the curve inflection point or half the effective response (parameter C of the fitted curve solution).

PANC-1 = details: Homo sapiens, 72 h, PANC-1, Pancreatic cancer, 3-day incubation
Experimental: as §1, §2, §3, §4, §5, §6

U266B1 = details: 72 h; U266B1, Multiple Myeloma, 3-day incubation; read-out: Cell Count IC50
Colo 320DM = details: Homo sapiens, 72 h, Colorectal carcinoma, 3-day incubation, read-out: Cell Count IC50
HT-29 = details: Homo sapiens, 72 h; HT-29, Colorectal carcinoma, 3-day incubation; read-out: Cell Count IC50
MEG01 = details: Homo sapiens, MEG-01, 72 h; MEG01, Leukemia, 3-day incubation; read-out: Cell Count EC50
DMS114 = details: Homo sapiens, DMS-114, 72 h; DMS114, Lung cancer, 3-day incubation; read-out: Cell Count IC50
MV-4-11 = details: Homo sapiens, MV4-11, 72 h; MV-4-11, Leukemia, 3-day incubation; read-out: Cell Count IC50
SU.86.86 = details: Homo sapiens, 72 h; SU.86.86, Pancreatic cancer, 3-day incubation; read-out: Cell Count IC50
CEM-C1 = details: 72 h; CEM-C1, Leukemia, 3-day incubation; read-out: Cell Count EC50
CaOV3 = details: Homo sapiens, Caov-3, 72 h; CaOV3, Ovarian carcinoma, 3-day incubation; read-out: Cell Count IC50
ARH-77 = details: Homo sapiens, 72 h; ARH-77, Leukemia, 3-day incubation; read-out: Cell Count EC50
G-401 = details: Homo sapiens, 72 h; G-401, Kidney cancer, 3-day incubation; read-out: Cell Count IC50

CCn1c(CO)nn(-c2cc(O[C@@H](C)C(F)(F)F)c(C(=O)Nc3c(F)cccc3Cl)cc2F)c1=O [Example 1, N-(2-chloro-6-fluorophenyl)-4-[4-ethyl-3-(hydroxymethyl)-5-oxo-4,5-dihydro-1H-1,2,4-triazol-1-yl]-5-fluoro-2-{[(2S)-1,1,1-trifluoropropan-2-yl]oxy}benzamide] gave a pIC50 (MHH-PREB-1) of 9.08, a pIC50 (Mia PaCa-2) of under 5.00 and a pEC50 (A498; read-out: Cell Count EC50) of under 5.00. It also gave a pIC50 (A498; read-out: Cell Count IC50) of under 5.00, a pEC50 (PANC-1; read-out: Cell Count EC50) of 8.46 and a pIC50 (PANC-1; read-out: Cell Count IC50) of under 5.00. The pIC50 (U266B1) was under 5.00, the pIC50 (Colo 320DM) was 8.29 and the pIC50 (HT-29) was 7.96. It also gave a pEC50 (MEG01) of 9.18, a pIC50 (DMS114) of under 5.00 and a pIC50 (MV-4-11) of 8.92. The pIC50 (SU.86.86) was under 5.00, the pEC50 (CEM-C1) was 9.04 and the pIC50 (CaOV3) was under 5.00. It also gave a pEC50 (ARH-77) of 9.04 and a pIC50 (G-401) of under 5.00.
